Marks after values point to notes of the source that are not given here.
How the values were obtained:
[1] = target: T1, hPXR (Homo sapiens, UniProt O75469); details: cited from earlier work; for Activity (Fluormone PXR (SXR) Green as Probe), % at single concentration: 1000 μM, published report (Lau et al.)
T1 construct: literature Invitrogen
T1 sequence (O75469 1-434): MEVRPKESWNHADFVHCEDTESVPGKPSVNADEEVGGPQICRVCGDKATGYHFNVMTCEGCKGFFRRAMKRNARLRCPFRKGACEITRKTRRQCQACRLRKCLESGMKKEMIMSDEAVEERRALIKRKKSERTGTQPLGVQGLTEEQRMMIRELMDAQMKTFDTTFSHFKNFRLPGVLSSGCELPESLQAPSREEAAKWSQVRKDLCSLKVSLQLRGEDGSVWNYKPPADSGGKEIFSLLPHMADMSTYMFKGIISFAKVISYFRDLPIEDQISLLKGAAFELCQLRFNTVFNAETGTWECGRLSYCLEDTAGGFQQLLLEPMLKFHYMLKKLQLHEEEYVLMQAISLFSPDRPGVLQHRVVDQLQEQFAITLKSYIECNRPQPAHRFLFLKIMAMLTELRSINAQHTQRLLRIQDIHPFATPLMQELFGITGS

[2] = target: T2, GST-PXRLBD (Homo sapiens, UniProt O75469); test: Interaction of BODIPY Fl-vindoline with GST-PXRLBD, Kd from specific binding curve; details: buffer 50 mM Tris, 50 mM KCl, 1 mM CHAPS, 0.1 mg/mL BSA, 0.05 mM DTT, pH 7.5
T2 construct: GST (N)
T2 sequence (O75469 146-433 limits assumed): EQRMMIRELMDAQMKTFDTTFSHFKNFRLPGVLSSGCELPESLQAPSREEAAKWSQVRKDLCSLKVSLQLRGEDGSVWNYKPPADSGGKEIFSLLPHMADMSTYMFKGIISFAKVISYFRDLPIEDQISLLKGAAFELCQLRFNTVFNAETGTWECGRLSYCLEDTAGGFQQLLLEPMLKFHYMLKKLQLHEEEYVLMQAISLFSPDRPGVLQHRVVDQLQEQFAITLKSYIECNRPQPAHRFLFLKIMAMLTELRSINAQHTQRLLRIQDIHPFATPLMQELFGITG
Procedure: Assay was performed using a buffer solution containing 50 mM Tris, 50 mM KCl, 1 mM CHAPS, 0.1 mg/mL BSA, and 0.05 mM DTT (pH=7.5).

[3] = Solubility of test compound in the TR-FRET assay; details: 100 μM
[4] = target: T1, hPXR; test: Invitrogen hPXR TR-FRET binding kit, Fluormone PXR (SXR) Green as probe (published reports); details: calculated from published data by equation 2

In the case of `C[C@@H]1C(=O)O[C@H]2C[C@@]34[C@H]5C[C@@H](C(C)(C)C)[C@]36[C@@H](OC(=O)[C@@H]6O)O[C@@]4(C(=O)O5)[C@]21O` [Ginkgolide A, ginkgolide A], the “Activity (Fluormone PXR (SXR) Green as Probe), % at single concentration” value [1] is given as 54% (1000 μM)^g.

In the case of `CC1C(=O)OC2C(O)C34C5CC(C(C)(C)C)C36C(OC(=O)C6O)OC4(C(=O)O5)C12O` (stereo not drawn) [Ginkgolide B, ginkgolide B], the “Activity (Fluormone PXR (SXR) Green as Probe), % at single concentration” value [1] is given as 48% (1000 μM)^g.

`CC[C@]12C=CCN3CC[C@@]4(c5ccc(OC)cc5N(C)[C@H]4[C@@](O)(C(=O)OC)[C@@H]1OC(=O)CCC1=[N+]4C(C=C1)Cc1c(C)cc(C)n1[B-]4(F)F)[C@@H]32` (stereo partly drawn) [BODIPY Fl-vindoline, BODIPY FL vindoline] gave a Kd [2] of 256 nM.

For `Clc1ccccc1C(c1ccccc1)(c1ccccc1)n1ccnc1` [Clotrimazole, clotrimazole], the “Solubility in the assay” value [3] is given as “incomplete solubility”, the IC50 ([1]; values from published reports, read-out: IC50 (Fluormone PXR (SXR) Green as Probe)) is given as 2000 nM and the Ki [4] is given as 1000 nM.

— US20160033531A1, “METHOD AND COMPOSITIONS FOR DETECTING BINDING TO THE PREGNANE X RECEPTOR” (ST. JUDE CHILDREN'S RESEARCH HOSPITAL, priority 2013, published 2016)
